Measurements: paper PMC6440935, “Characterization and phase I study of CLR457, an orally bioavailable pan-class I PI3-kinase inhibitor” (Investigational New Drugs, 2018)
Where two headings read alike, the source gives them in different places.

Tests used:
[1] = system: blood glucose and plasma insulin levels; experiment: Blood glucose and plasma insulin in tumor bearing nude rats; format: in vivo
Method: (§1) [13] […] [13] […] CLR457 antitumor activity was then evaluated as described previously. […] (Supplemental Methods).

[2] = First-in-human phase I study: plasma pharmacokinetics; conditions: for Racc, geometric mean (CV%) / V/F, geometric mean (CV%): cycle 1 day 15
Method: (§2) The starting dose for CLR457 was 5 mg QD, based on preclinical toxicology studies in accordance with ICH guidelines, and was administered at the same time each day ±2 h in a fasted state. Various doses were planned up to 300 mg QD until MTD determination.
(§3) PK parameters including area under the curve (AUC), maximum serum concentration (Cmax), and time taken to reach Cmax (Tmax) were calculated using non-compartmental methods in Phoenix WinNonlin. [20]
(§4) [21] […] The Pharmacokinetic analysis set included all patients who had at least one blood sample providing evaluable PK data.

[3] = system: blood glucose and plasma insulin levels; experiment: Blood glucose and plasma insulin in tumor bearing nude mice; format: in vivo
Method: as §1

[4] = Preclinical systemic exposure and tissue distribution; format: in vivo, mice and rats
p110β = p110β (Homo sapiens, UniProt P42338); experiment: In vitro PI3K biochemical assay, p110β
p110β, sequence (P42338 2-1070 limits assumed): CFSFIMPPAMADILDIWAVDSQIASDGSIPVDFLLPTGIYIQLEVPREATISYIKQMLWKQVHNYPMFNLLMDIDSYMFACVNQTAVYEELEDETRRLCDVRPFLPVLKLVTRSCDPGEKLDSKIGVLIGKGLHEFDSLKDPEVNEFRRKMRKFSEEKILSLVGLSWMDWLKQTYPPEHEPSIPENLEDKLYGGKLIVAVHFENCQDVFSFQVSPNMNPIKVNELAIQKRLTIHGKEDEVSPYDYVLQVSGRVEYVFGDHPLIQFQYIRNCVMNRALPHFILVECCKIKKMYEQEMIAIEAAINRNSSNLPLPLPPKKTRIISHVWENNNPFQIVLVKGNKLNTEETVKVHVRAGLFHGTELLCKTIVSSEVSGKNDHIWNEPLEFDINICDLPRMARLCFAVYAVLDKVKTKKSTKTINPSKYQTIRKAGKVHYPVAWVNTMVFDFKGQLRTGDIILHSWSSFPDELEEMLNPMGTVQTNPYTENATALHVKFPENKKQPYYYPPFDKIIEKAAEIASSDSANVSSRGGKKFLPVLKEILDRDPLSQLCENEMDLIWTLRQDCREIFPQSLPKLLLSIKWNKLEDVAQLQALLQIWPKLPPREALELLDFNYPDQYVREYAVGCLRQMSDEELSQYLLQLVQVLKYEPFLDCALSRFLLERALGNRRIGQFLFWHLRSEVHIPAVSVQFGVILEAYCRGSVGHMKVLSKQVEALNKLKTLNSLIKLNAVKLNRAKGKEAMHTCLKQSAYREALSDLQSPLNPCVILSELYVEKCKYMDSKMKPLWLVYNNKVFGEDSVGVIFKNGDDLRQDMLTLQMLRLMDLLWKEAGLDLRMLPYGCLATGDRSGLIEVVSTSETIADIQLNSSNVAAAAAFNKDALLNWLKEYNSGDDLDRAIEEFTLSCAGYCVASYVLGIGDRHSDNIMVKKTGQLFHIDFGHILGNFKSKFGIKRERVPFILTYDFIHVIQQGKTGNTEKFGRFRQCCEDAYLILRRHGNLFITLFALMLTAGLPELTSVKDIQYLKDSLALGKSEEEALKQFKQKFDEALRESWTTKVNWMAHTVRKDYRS
p110β, sequence (P27986 461-568 partner limits assumed): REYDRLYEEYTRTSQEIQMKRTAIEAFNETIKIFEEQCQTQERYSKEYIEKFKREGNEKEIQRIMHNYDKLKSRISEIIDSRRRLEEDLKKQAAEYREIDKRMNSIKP

glucose and insulin = experiment: First-in-human phase I study: pharmacodynamic markers glucose and insulin; format: in vivo; conditions: 100 mg QD; not clinically significant
Method: At the dose of 100 mg QD, there was an increase in the pharmacodynamic markers glucose and insulin, consistent with that observed in the preclinical models, however this increase was not clinically significant (CTCAE grade ≤ 2) (Fig. 3) and was within the range of expected changes based on preclinical data (Fig. 2).

p110α = p110α (Homo sapiens, UniProt P42336); experiment: In vitro PI3K biochemical assay, p110α
p110α, sequence (P42336 21-1068 limits assumed): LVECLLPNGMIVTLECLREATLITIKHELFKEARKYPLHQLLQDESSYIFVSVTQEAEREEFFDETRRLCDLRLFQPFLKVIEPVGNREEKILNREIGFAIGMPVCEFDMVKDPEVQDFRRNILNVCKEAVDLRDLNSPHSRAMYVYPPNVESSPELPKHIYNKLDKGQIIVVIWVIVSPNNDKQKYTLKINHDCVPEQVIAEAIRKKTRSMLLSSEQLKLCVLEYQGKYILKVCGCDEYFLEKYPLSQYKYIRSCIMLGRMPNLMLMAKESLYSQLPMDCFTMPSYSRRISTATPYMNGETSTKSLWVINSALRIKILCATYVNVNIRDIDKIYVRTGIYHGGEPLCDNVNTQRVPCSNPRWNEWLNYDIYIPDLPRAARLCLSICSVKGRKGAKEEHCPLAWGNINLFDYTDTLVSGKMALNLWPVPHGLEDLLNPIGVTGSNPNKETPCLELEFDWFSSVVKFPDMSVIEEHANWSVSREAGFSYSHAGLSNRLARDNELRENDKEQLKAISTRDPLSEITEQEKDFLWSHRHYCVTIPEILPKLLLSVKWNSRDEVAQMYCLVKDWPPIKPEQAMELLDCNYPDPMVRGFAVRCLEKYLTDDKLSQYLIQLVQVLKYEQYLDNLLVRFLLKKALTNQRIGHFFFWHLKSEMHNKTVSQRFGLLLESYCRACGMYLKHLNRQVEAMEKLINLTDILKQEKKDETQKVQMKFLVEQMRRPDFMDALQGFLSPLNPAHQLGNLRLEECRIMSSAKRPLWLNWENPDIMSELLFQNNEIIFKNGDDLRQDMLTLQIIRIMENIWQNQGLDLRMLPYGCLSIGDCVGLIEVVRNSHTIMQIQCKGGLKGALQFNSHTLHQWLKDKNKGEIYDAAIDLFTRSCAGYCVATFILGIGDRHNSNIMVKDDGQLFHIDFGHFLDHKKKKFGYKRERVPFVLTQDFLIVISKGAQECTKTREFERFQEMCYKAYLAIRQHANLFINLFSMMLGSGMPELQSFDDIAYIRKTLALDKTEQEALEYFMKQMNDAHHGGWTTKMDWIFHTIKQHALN

p110γ = p110γ (Homo sapiens, UniProt P48736); experiment: In vitro PI3K biochemical assay, p110γ
p110γ, sequence (P48736 whole entry, the tested form may be a part, canonical isoform): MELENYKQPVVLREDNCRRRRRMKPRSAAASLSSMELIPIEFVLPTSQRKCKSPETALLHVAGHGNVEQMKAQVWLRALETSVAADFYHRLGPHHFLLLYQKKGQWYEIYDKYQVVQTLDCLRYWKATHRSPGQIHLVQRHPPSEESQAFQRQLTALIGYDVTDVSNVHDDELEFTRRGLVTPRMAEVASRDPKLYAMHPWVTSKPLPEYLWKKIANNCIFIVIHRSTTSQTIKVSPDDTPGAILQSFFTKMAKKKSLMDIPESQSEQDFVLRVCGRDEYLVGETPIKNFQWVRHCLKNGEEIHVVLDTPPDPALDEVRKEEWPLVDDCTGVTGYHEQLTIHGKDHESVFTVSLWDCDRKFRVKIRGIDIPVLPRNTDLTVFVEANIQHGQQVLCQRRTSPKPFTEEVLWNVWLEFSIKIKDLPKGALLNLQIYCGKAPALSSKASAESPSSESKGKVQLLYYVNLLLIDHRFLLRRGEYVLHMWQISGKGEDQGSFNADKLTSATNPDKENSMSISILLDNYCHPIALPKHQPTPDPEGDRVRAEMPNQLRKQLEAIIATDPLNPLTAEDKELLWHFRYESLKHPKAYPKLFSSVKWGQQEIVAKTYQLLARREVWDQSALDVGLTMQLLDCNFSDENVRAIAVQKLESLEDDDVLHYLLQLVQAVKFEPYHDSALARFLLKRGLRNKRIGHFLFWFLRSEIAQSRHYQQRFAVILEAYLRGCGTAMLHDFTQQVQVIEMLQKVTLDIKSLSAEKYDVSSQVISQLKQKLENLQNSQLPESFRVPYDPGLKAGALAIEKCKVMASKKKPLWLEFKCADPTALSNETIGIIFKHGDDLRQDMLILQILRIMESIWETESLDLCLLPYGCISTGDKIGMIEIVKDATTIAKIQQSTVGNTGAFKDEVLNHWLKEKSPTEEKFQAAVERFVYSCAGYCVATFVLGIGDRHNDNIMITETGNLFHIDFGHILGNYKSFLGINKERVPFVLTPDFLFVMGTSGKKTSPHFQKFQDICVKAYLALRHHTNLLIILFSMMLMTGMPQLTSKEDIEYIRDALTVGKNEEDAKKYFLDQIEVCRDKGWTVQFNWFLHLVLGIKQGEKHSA

[5] = target: PIK3CA H1047R (kinase domain mutation) (Homo sapiens, UniProt P42336, H1047R); experiment: In vitro profiling, PIK3CA mutant isoform H1047R; format: biochemical; conditions: data not shown
PIK3CA H1047R (kinase domain mutation), sequence (P42336 21-1068 H1047R limits assumed): as the sequence (P42336 21-1068 limits assumed) above, with H1027R counted along it
PIK3CA H1047R (kinase domain mutation), sequence (P27986 461-568 partner limits assumed): as the sequence (P27986 461-568 partner limits assumed) above

[6] = target: PIK3CA E545K (helical domain mutation) (Homo sapiens, UniProt P42336, E545K); experiment: In vitro profiling, PIK3CA mutant isoform E545K; format: biochemical; conditions: data not shown
PIK3CA E545K (helical domain mutation), sequence (P42336 21-1068 E545K limits assumed): as the sequence (P42336 21-1068 limits assumed) above, with E525K counted along it
PIK3CA E545K (helical domain mutation), sequence (P27986 461-568 partner limits assumed): as the sequence (P27986 461-568 partner limits assumed) above

[7] = human, in vivo
Method: as §2, §3, §4

[8] = at the dose necessary for tumor regression

Method for Rat1-myr-p110α tumors: To evaluate antitumor activity in vivo, three xenograft models were utilized: Rat1-myr-p110α, Rat1-myr-p110δ, and HBRX2524. For Rat1-myr-p110α and Rat1-myr-p110δ, Rat1 fibroblasts were transfected with an N-terminal myristoylated form of PI3Kα or PI3Kδ isoform, which led to constitutive activation of the PI3K pathway. […] Tumor xenografts were then grown subcutaneously in nude mice or nude rats by injection of 2 to 3 × 10^6 cells into the right flank (for Rat1-myr-p110α and Rat1-myr-p110δ). For HBRX2524, a patient-derived breast cancer tumor bearing the H1047R PIK3CA activating mutation was established by subcutaneously implanting resected patient tumor samples in nude mice without any in vitro manipulations.
For the preclinical studies, absolute values for primary tumor growth and body weight were used to make the statistical comparisons between groups (one way analysis of variance [ANOVA] test followed by Dunnett’s test for normally distributed data; ANOVA on ranks for not normally distributed data followed by Dunnett’s test for equal group size or Dunn’s for unequal group size). The significant level was set at p < 0.05.
Female nude Rowett rats Hsd: RH-Fox1rnu were obtained from Harlan (Netherlands) and female Hsd: Athymic Nude-nu CPB mice were obtained from Harlan Winkelmann, Germany.

In the case of `C[C@H]1OC(=O)N(c2cc(-c3cnc(N)nc3C(F)(F)F)nc(N3CCOCC3)n2)[C@H]1CO` [CLR457], the Plasma insulin levels [1] is reported as “increased proportionally to CLR457 concentration”, the Blood glucose levels [1, 8] is reported as “moderately perturbed” and the “Racc, geometric mean (CV%)” value ([2]; 5 mg, n 2) is reported as 1.4 (33.4). For the same compound, the “V/F, geometric mean (CV%)” value ([2]; 5 mg, n 2) was 43,139 (6.6) mL, the “Racc, geometric mean (CV%)” value ([2]; 10 mg, n 3) was 1.3 (24.3) and the “V/F, geometric mean (CV%)” value ([2]; 10 mg, n 3) was 66,520 (11.5) mL. For the same compound, the “Racc, geometric mean (CV%)” value ([2]; 20 mg, n 4) was 1.1 (28.4), the “V/F, geometric mean (CV%)” value ([2]; 20 mg, n 4) was 55,193 (32.1) mL and the “Racc, geometric mean (CV%)” value ([2]; 40 mg, n 5) was 1.3 (38.4). For the same compound, the “V/F, geometric mean (CV%)” value ([2]; 40 mg, n 5) was 115,503 (109.2) mL, the “V/F, geometric mean (CV%)” value ([2]; 70 mg, n 4) was 72,822 (49.9) mL and the “Racc, geometric mean (CV%)” value ([2]; 70 mg, n 5) was 1.4 (29.5). The “Racc, geometric mean (CV%)” value ([2]; 100 mg, n 4) was 1.3 (37.0), the “V/F, geometric mean (CV%)” value ([2]; 100 mg, n 4) was 67,311 (38.2) mL and the Steady state ([2]; repeated daily dosing) was “reached by C1D15”. For the same compound, the Plasma insulin levels [3] was “increased proportionally to CLR457 concentration”, the Blood glucose levels [3, 8] was “moderately perturbed” and the Antitumor activity (Rat1-myr-p110α tumors; 3, 10, 30, 60 mg/kg QD and 30 mg/kg BID oral) was “dose proportional antitumor activity”. The “Dose at which tumor regression was observed” value (Rat1-myr-p110α tumors; oral) was no less than 30 mg/kg QD, the “Steady state AUC” value ([4]; at doses where tumor regression was observed) was 22,769 ng*h/mL and the “Central nervous system (CNS) penetration” value ([4]; from brain/plasma exposure ratio) was “minimal”. The “Mean tissue/plasma exposure ratio based on AUC, brain” value ([4]; in vivo) was 0.07, the “Mean tissue/plasma exposure ratio based on AUC, eyes” value ([4]; in vivo) was 0.51 and the “Mean tissue/plasma exposure ratio based on AUC, heart” value ([4]; in vivo) was 0.83. The “Mean tissue/plasma exposure ratio based on AUC, pancreas” value ([4]; in vivo) was 1.74, the “Mean tissue/plasma exposure ratio based on AUC, skin” value ([4]; in vivo) was 1 and the “Mean tissue/plasma exposure ratio based on AUC, spleen” value ([4]; in vivo) was 1.22. The IC50 (p110β) was 56 ± 35 nM, the “CTCAE grade of increase in glucose and insulin” value (glucose and insulin) was no more than 2 and the IC50 (p110α) was 89 ± 29 nM. For the same compound, the IC50 (p110γ) was 230 ± 31 nM, the “Inhibition of PIK3CA mutant isoform H1047R” value [5] was “inhibited” and the “Inhibition of PIK3CA mutant isoform E545K” value [6] was “inhibited”. For the same compound, the “Geometric mean CL/F” value [7] was 2610 to 4742 mL/h, the “Median Tmax” value [7] was 1 to 3.5 h and the “AUC(0-24h), geometric mean (CV%)” value ([7]; 5 mg) was 1182 (40.8) hr*ng/mL. The “AUCtau, geometric mean (CV%)” value ([7]; 5 mg) was 1665 (81.7) hr*ng/mL, the “CL/F, geometric mean (CV%)” value ([7]; 5 mg) was 3003 (81.7) mL/h and the “Cmax, geometric mean (CV%)” value ([7]; 5 mg) was 100 (0.40) ng/mL. For the same compound, the “T1/2, acc, median (range)” value ([7]; 5 mg) was 13.9 (7.58–20.20) hr, the “Tmax, median (range)” value ([7]; 5 mg) was 2.50 (1.00–4.00) hr and the “AUC(0-24h), geometric mean (CV%)” value ([7]; 10 mg) was 2241 (7.5) hr*ng/mL. The “AUCtau, geometric mean (CV%)” value ([7]; 10 mg) was 2846 (25.5) hr*ng/mL, the “CL/F, geometric mean (CV%)” value ([7]; 10 mg) was 3514 (25.5) mL/h and the “Cmax, geometric mean (CV%)” value ([7]; 10 mg) was 230 (24.5) ng/mL. The “T1/2, acc, median (range)” value ([7]; 10 mg) was 7.92 (6.53–18.40) hr, the “Tmax, median (range)” value ([7]; 10 mg) was 1.00 (0.92–2.00) hr and the “AUC(0-24h), geometric mean (CV%)” value ([7]; 20 mg) was 6718 (41.6) hr*ng/mL. For the same compound, the “AUCtau, geometric mean (CV%)” value ([7]; 20 mg) was 7662 (45.3) hr*ng/mL, the “CL/F, geometric mean (CV%)” value ([7]; 20 mg) was 2610 (45.3) mL/h and the “Cmax, geometric mean (CV%)” value ([7]; 20 mg) was 475 (24.2) ng/mL. For the same compound, the “T1/2, acc, median (range)” value ([7]; 20 mg) was 11.8 (5.71–15.34) hr, the “Tmax, median (range)” value ([7]; 20 mg) was 2.51 (2.05–3.95) hr and the “AUC(0-24h), geometric mean (CV%)” value ([7]; 40 mg) was 9567 (34.9) hr*ng/mL. The “AUCtau, geometric mean (CV%)” value ([7]; 40 mg) was 11,727 (39.0) hr*ng/mL, the “CL/F, geometric mean (CV%)” value ([7]; 40 mg) was 3411 (39.0) mL/h and the “Cmax, geometric mean (CV%)” value ([7]; 40 mg) was 687 (47.2) ng/mL. For the same compound, the “T1/2, acc, median (range)” value ([7]; 40 mg) was 11.0 (4.13–27.90) hr, the “Tmax, median (range)” value ([7]; 40 mg) was 2.07 (0.98–6.00) hr and the “AUC(0-24h), geometric mean (CV%)” value ([7]; 70 mg) was 10,537 (47.6) hr*ng/mL. For the same compound, the “AUCtau, geometric mean (CV%)” value ([7]; 70 mg) was 14,762 (37.1) hr*ng/mL, the “CL/F, geometric mean (CV%)” value ([7]; 70 mg) was 4742 (37.1) mL/h and the “Cmax, geometric mean (CV%)” value ([7]; 70 mg) was 732 (44.8) ng/mL. The “T1/2, acc, median (range)” value ([7]; 70 mg) was 16.8 (11.9–23.70) hr.
